Data on one compound can be found in patent publication US20260325477A1, “METHODS OF TREATMENT USING DRY POWDER COMPOSITIONS OF TREPROSTINIL PRODRUGS” (Insmed Incorporated, priority 2024, published 2026).

For one data set, the system named is healthy adults. As to the kind of experiment: Phase I single-dose safety and tolerability of TPIP in healthy adults. As to conditions: single doses 112.5, 225, 450 and 675 μg. It is filed as in vivo, human. The procedure: Specifically, in a Phase I safety, tolerability, and PK study, healthy adults were administered single doses of 112.5 μg, 225 μg, 450 μg, and 675 μg of a compound of Formula (II).

A short description of data set [1]: Phase I pharmacokinetics of treprostinil after inhalation of the compound of Formula (II). It is filed as in vivo, human. The conditions noted are these: dose range of 112.5 μg to 675 μg. The method, then:
The term “Cmax” means the maximum (or peak) treprostinil serum concentration measured after a compound of Formula (I) or (II), an enantiomer or diastereomer thereof, or a pharmaceutically acceptable salt thereof is administered to the lungs of a subject via a dry powder composition described herein. In addition, Cmax may be measured after a single administration of a compound of Formula (I) or (II), an enantiomer or diastereomer thereof, or a pharmaceutically acceptable salt thereof, described herein, or treprostinil Cmax may be measured at steady state. Unless stated otherwise, Cmax refers to the average treprostinil Cmax measured after a single administration among a population of subjects (e.g., a population of PH patients).
The term “AUC” means the area under the plasma concentration time curve for treprostinil, measured from time 0 to a certain time post-administration to the lungs of a subject, calculated by a combination of linear and logarithmic trapezoidal methods (Linear up/log down method). […] In addition, treprostinil AUC may be measured after a single administration or at steady state values. Unless stated otherwise, AUC refers to the average AUC measured after a single administration among a population of subjects (e.g., a population of PH patients). […]

In data set [2] the test system is subjects with pulmonary hypertension. In words: Phase 2 safety and efficacy study in subjects with pulmonary hypertension. It is filed as in vivo, human. The method, then:
In a Phase 2 safety and efficacy study, the following doses of were investigated in subjects with pulmonary hypertension, including pulmonary arterial hypertension: 80 μg, 160 μg, 240 μg, 320 μg, 400 μg, 480 μg, and 640 μg. In this study, patients were administered a starting dose of 80 μg of the TPIP and the dose was titrated up to 640 μg according to FIG. 2.

Data set [3] can be described thus: Nonclinical studies of TP: conversion, delivery, PK and PD. An excerpt: (§1) Treprostinil palmitil (TP) is a hexadecyl ester prodrug of treprostinil (TRE). In the lung, TP is hydrolyzed by esterases to TRE and hexadecanol.
The next data set has as its system rodent model of PAH. As to the kind of experiment: Rodent model of PAH. It counts as in vivo. The conditions noted are these: inhibition of associated adverse pathology and pathophysiology.
Description: as §1

Data set [4] can be described thus: Nonclinical safety and toxicology of TP. It is filed as in vivo.
Description: as §1

Regarding `CCCCCCCCCCCCCCCCOC(=O)COc1cccc2c1C[C@H]1C[C@@H](O)[C@H](CC[C@@H](O)CCCCC)[C@H]1C2` [treprostinil palmitil], in the data set with healthy adults, the safety and tolerability entry was “safe and well-tolerated”; the “serious or severe TEAEs” value is listed as “no serious or severe TEAEs were observed”. Moreover, the “pharmacokinetic (PK) profile, dose linearity” value in data set [1] is “linear”. For the same compound, the tolerability entry in data set [2] (640 μg, highest dose administered in a clinical trial) was “well tolerated”. Also, the tolerability result in data set [2] (all doses, 80 μg to 640 μg) is recorded as “well tolerated”. Also, the efficacy result in data set [2] (higher doses) was “promising efficacy”. In addition, in data set [3], the “PK and PD profile” value is “prolonged PK and PD profile”; the “delivery of treprostinil to the lungs and systemic circulation” value is reported as “sustained delivery”. Moreover, the “conversion from the prodrug to the active drug, treprostinil” value in data set [3] (in vitro and in vivo) is listed as “converted from the prodrug to the active drug, treprostinil”. Moreover, the “efficacy in a rodent model of PAH” value in the data set with rodent model of PAH was “efficacious”. The “preclinical safety or toxicological findings” value in data set [4] is recorded as “did not demonstrate concerning preclinical safety or toxicological findings”.
